For 28 molecules, Ki results are on record in patent US12617797B2, “Substituted pyrazolo [1,5-a]pyrimidines having multimodal activity against pain” (ESTEVE PHARMACEUTICALS, S.A., priority 2020, dated 2026).

Assay [1] addresses Human α2δ-1 subunit of Cav2.2 calcium channel (Homo sapiens, UniProt P54289). Put plainly: Human α2δ-1 subunit of Cav2.2 calcium channel assay ([3H]-gabapentin binding). The settings on record: binding to the α2δ-1 subunit of voltage-gated calcium channels expressed as Ki; + also covers inhibition between 1% and 50%. Put shortly: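 Displacement of 15 nM [3H]-gabapentin from human α2δ-1-enriched membranes (Hepes-KOH 10 mM, pH 7.4; 27 °C, 60 min) read by filter binding and radioactivity counting. Values are single-point % inhibition (1 or 10 μM) or five-point Ki; 10 μM pregabalin sets NSB.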

The next assay has as its target T1, Human σ1 receptor (Homo sapiens, UniProt Q99720).
T1 construct: expressed in transfected cells; host or cells: HEK-293
Kind of assay: Human σ1 receptor radioligand assay ([3H](+)-pentazocine binding, transfected HEK-293 membranes). The settings on record: binding to σ1 receptor expressed as Ki; + also covers inhibition between 1% and 50%; read-out: σ-1 binding. In a few lines:
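Ki was derived from five test concentrations, or % inhibition was measured at a single 1 or 10 μM dose, against 5 nM [3H](+)-pentazocine. Incubation was 120 min at 37° C in 50 mM Tris-HCl pH 8 with 7 μg HEK-293 membranes, and 10 μM haloperidol set non-specific binding. Bound radioactivity was counted after filtration.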

Human α2δ-1 subunit of Cav2.2 calcium channel, sequence (P54289 25-1103): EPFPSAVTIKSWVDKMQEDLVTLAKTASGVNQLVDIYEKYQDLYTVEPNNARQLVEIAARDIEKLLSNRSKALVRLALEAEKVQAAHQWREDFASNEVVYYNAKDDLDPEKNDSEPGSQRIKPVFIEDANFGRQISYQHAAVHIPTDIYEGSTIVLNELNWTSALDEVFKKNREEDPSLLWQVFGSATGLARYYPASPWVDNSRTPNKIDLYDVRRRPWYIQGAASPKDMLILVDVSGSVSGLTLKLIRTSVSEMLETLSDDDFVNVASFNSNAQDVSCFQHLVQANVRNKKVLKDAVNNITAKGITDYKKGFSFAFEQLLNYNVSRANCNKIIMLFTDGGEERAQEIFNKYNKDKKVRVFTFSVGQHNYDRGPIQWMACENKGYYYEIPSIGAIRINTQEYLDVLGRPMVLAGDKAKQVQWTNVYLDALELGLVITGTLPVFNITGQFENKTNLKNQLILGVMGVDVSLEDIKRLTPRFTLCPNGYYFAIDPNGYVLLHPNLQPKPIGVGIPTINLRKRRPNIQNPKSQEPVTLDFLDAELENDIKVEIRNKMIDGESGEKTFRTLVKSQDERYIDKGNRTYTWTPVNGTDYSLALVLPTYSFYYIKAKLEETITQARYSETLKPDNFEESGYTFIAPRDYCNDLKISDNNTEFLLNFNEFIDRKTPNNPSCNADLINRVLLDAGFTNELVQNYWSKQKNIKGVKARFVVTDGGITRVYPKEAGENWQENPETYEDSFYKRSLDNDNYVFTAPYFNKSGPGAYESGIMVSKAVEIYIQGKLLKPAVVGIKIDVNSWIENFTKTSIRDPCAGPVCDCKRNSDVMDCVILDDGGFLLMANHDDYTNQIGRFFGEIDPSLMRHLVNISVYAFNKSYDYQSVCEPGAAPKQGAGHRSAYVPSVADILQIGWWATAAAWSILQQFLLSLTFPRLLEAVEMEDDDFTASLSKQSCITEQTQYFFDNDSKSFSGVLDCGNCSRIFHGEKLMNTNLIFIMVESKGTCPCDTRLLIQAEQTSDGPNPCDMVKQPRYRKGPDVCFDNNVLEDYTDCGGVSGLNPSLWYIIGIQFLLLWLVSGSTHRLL
T1 sequence (Q99720 whole entry): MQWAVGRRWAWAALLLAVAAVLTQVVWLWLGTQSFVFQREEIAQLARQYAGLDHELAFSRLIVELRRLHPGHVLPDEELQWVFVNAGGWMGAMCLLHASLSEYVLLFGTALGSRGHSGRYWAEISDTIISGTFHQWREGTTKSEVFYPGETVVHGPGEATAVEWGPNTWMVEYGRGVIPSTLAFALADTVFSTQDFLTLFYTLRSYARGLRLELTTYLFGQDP

As to `Cc1nn2c([C@@H]3CCCN(Cc4ccc(Cl)cc4)C3)ccnc2c1CNCC1CCOCC1` [Example 200, (R)-1-(7-(1-(4-chlorobenzyl)piperidin-3-yl)-2-methylpyrazolo[1,5-a]pyrimidin-3-yl)-N-((tetrahydro-2H-pyran-4-yl)methyl)methanamine], the Ki in assay [1] was above 5 µM; at Human σ1 receptor, below 0.5 µM.
In the case of `Cc1nn2c(C3CCCN(Cc4ccc(Cl)cc4)C3)ccnc2c1CNCCCN1CCCC1=O` (centres unmarked) [Example 176, 1-(3-(((7-(1-(4-Chlorobenzyl)piperidin-3-yl)-2-methylpyrazolo[1,5-a]pyrimidin-3-yl)methyl)amino)propyl)pyrrolidin-2-one], the Ki in assay [1] is 0.5 to 5 µM; at Human σ1 receptor it was above 1 µM.
On to `Cc1nn2c([C@H]3CCCN(Cc4cc(F)cc(F)c4)C3)ccnc2c1CNCC1CCOCC1` [Example 241, (S)-1-(7-(1-(3,5-Difluorobenzyl)piperidin-3-yl)-2-methylpyrazolo[1,5-a]pyrimidin-3-yl)-N-((tetrahydro-2H-pyran-4-yl)methyl)methanamine], for which the Ki in assay [1] was above 5 µM; on Human σ1 receptor, below 0.5 µM.
As to `Cc1nn2c(C3CCCN(Cc4ccc(Cl)cc4)C3)ccnc2c1CNCC1CC1` (centres unmarked) [Example 157, 1-(7-(1-(4-Chlorobenzyl)piperidin-3-yl)-2-methylpyrazolo[1,5-a]pyrimidin-3-yl)-N-(cyclopropylmethyl)methanamine], the figures for the Ki (in assay [1]; on Human σ1 receptor) were 0.5 to 5 µM and below 0.5 µM, respectively.
`Cc1nn2c(C3CCCN(Cc4ccc(Cl)cc4)C3)ccnc2c1-c1cncn1C` (centres unmarked) [Example 138, 7-(1-(4-Chlorobenzyl)piperidin-3-yl)-2-methyl-3-(1-methyl-1H-imidazol-5-yl)pyrazolo[1,5-a]pyrimidine]: the results for the Ki (in assay [1]; on Human σ1 receptor) were above 5 µM and above 1 µM, respectively.
In the same order, the values of `COc1ncccc1-c1cc2nccc(C3CCCN(Cc4cccc(Cl)c4)C3)n2n1` (centres unmarked) [Example 116, 7-(1-(3-Chlorobenzyl)piperidin-3-yl)-2-(2-methoxypyridin-3-yl)pyrazolo[1,5-a]pyrimidine] are above 5 µM and above 1 µM.
Turning to `Cc1nn2c(C3CCCN(Cc4ccc(Cl)cc4)C3)ccnc2c1CN1CCC(C(N)=O)CC1` (centres unmarked) [Example 171, 1-((7-(1-(4-Chlorobenzyl)piperidin-3-yl)-2-methylpyrazolo[1,5-a]pyrimidin-3-yl)methyl)piperidine-4-carboxamide], the Ki in assay [1] is 0.5 to 5 µM; at Human σ1 receptor, below 0.5 µM.
As for `CN[C@H]1CCN(c2cc3nccc([C@H]4CCCN(Cc5ccccc5)C4)n3n2)C1` [Example 85, (S)-1-(7-((S)-1-Benzylpiperidin-3-yl)pyrazolo[1,5-a]pyrimidin-2-yl)-N-methylpyrrolidin-3-amine], the values for the Ki (in assay [1]; on Human σ1 receptor) were above 5 µM and above 1 µM, respectively.
In the case of `Cc1nn2c(C3CCCN(Cc4ccc(Cl)cc4)C3)ccnc2c1CNCC1(F)CCOCC1` (centres unmarked) [Example 177, 1-(7-(1-(4-Chlorobenzyl)piperidin-3-yl)-2-methylpyrazolo[1,5-a]pyrimidin-3-yl)-N-((4-fluorotetrahydro-2H-pyran-4-yl)methyl)methanamine], the Ki in assay [1] was 0.5 to 5 µM; at Human σ1 receptor it was below 0.5 µM.
Take `Cc1nn2c(C3CCCN(Cc4ccccc4)C3)ccnc2c1CN` (centres unmarked) [Example 99, (7-(1-Benzylpiperidin-3-yl)-2-methylpyrazolo[1,5-a]pyrimidin-3-yl)methanamine]: the Ki in assay [1] is 0.5 to 5 µM; at Human σ1 receptor, above 1 µM.
As to `Cc1nn2c([C@@H]3CCCN([C@H](CO)c4ccccc4)C3)ccnc2c1-c1ccncc1` [Example 106, (S)-2-((R)-3-(2-Methyl-3-(pyridin-4-yl)pyrazolo[1,5-a]pyrimidin-7-yl)piperidin-1-yl)-2-phenylethanol], the Ki in assay [1] was above 5 µM; on Human σ1 receptor, above 1 µM.
In the case of `Cc1nn2c(C3CCCN(Cc4ccc(Cl)cc4)C3)ccnc2c1CNCCC1CCOCC1` (centres unmarked) [Example 178, N-((7-(1-(4-Chlorobenzyl)piperidin-3-yl)-2-methylpyrazolo[1,5-a]pyrimidin-3-yl)methyl)-2-(tetrahydro-2H-pyran-4-yl)ethan-1-amine], the Ki was 0.5 to 5 µM in assay [1] and below 0.5 µM on Human σ1 receptor.
For `Cc1cc(-c2c(C)nn3c(C4CCCN(Cc5ccccc5)C4)ccnc23)ccn1` (centres unmarked) [Example 51, 7-(1-Benzylpiperidin-3-yl)-2-methyl-3-(2-methylpyridin-4-yl)pyrazolo[1,5-a]pyrimidine], the Ki in assay [1] is 0.5 to 5 µM; at Human σ1 receptor it was 0.5 to 1 µM.
Take `COc1ncccc1-c1cc2nccc(C3CCCN(Cc4ccc(Cl)c(Cl)c4)C3)n2n1` (centres unmarked) [Example 118, 7-(1-(3,4-Dichlorobenzyl)piperidin-3-yl)-2-(2-methoxypyridin-3-yl)pyrazolo[1,5-a]pyrimidine]: the Ki was above 5 µM in assay [1] and above 1 µM on Human σ1 receptor.
Take `COCCCCNCc1c(C)nn2c(C3CCCN(Cc4ccc(Cl)cc4)C3)ccnc12` (centres unmarked) [Example 163, N-((7-(1-(4-Chlorobenzyl)piperidin-3-yl)-2-methylpyrazolo[1,5-a]pyrimidin-3-yl)methyl)-4-methoxybutan-1-amine]: the Ki (in assay [1]; at Human σ1 receptor) was below 0.5 µM each time.
`Cc1nn2c([C@@H]3CCCN(Cc4ccc(Cl)cc4)C3)ccnc2c1CNC[C@H]1CCOC1` [Example 202, 1-(7-((R)-1-(4-chlorobenzyl)piperidin-3-yl)-2-methylpyrazolo[1,5-a]pyrimidin-3-yl)-N—(((R)-tetrahydrofuran-3-yl)methyl)methanamine]: the Ki (in assay [1]; at Human σ1 receptor) was below 0.5 µM throughout.
As to `CN(c1cc2nccc(C3CCCN(Cc4ccccc4)C3)n2n1)C1CCNCC1` (centres unmarked) [Example 82, 7-(1-Benzylpiperidin-3-yl)-N-methyl-N-(piperidin-4-yl)pyrazolo[1,5-a]pyrimidin-2-amine], the Ki in assay [1] is 0.5 to 5 µM; at Human σ1 receptor it was above 1 µM.
For `Cc1nc(-c2cccc(-c3c(C)nn4c(C5CCCN(Cc6ccccc6)C5)ccnc34)c2)no1` (centres unmarked) [Example 55, 3-(3-(7-(1-Benzylpiperidin-3-yl)-2-methylpyrazolo[1,5-a]pyrimidin-3-yl)phenyl)-5-methyl-1,2,4-oxadiazole], the figures for the Ki (in assay [1]; on Human σ1 receptor) were 0.5 to 5 µM and above 1 µM, respectively.
In the same order, the values of `Cc1nn2c(C3CCCN(Cc4cccc(Cl)c4)C3)ccnc2c1-c1ccncc1` (centres unmarked) [Example 122, 7-(1-(3-Chlorobenzyl)piperidin-3-yl)-2-methyl-3-(pyridin-4-yl)pyrazolo[1,5-a]pyrimidine] are 0.5 to 5 µM and above 1 µM.
`COc1ccc(CN2CCCC(c3ccnc4c(CNCC5CCOCC5)c(C)nn34)C2)cc1` (centres unmarked) [Example 242, 1-(7-(1-(4-Methoxybenzyl)piperidin-3-yl)-2-methylpyrazolo[1,5-a]pyrimidin-3-yl)-N-((tetrahydro-2H-pyran-4-yl)methyl)methanamine]: the Ki in assay [1] was above 5 µM; on Human σ1 receptor it was below 0.5 µM.
As to `c1ccc(CN2CCCC(c3ccnc4c(N5CCCC5)cnn34)C2)cc1` (centres unmarked) [Example 88, 7-(1-Benzylpiperidin-3-yl)-3-(pyrrolidin-1-yl)pyrazolo[1,5-a]pyrimidine], the Ki in assay [1] is above 5 µM; at Human σ1 receptor, 0.5 to 1 µM.
In the same order, the values of `Cc1nn2c([C@H]3CCCN(Cc4ccc(F)cc4)C3)ccnc2c1CNCC1CCOCC1` [Example 206, (S)-1-(7-(1-(4-Fluorobenzyl)piperidin-3-yl)-2-methylpyrazolo[1,5-a]pyrimidin-3-yl)-N-((tetrahydro-2H-pyran-4-yl)methyl)methanamine] are below 0.5 µM and below 0.5 µM.
In the same order, the values of `Cc1nn2c(C3CCCN(Cc4ccc(Cl)cc4)C3)ccnc2c1-c1cnc(N)nc1` (centres unmarked) [Example 131, 5-(7-(1-(4-Chlorobenzyl)piperidin-3-yl)-2-methylpyrazolo[1,5-a]pyrimidin-3-yl)pyrimidin-2-amine] are above 5 µM and above 1 µM.
As to `Cc1nn2c(C3CCCN(Cc4ccc(Cl)cc4)C3)ccnc2c1CN(C)CC1CCOCC1` (centres unmarked) [Example 231, 1-(7-(1-(4-Chlorobenzyl)piperidin-3-yl)-2-methylpyrazolo[1,5-a]pyrimidin-3-yl)-N-methyl-N-((tetrahydro-2H-pyran-4-yl)methyl)methanamine], the Ki was 0.5 to 5 µM in assay [1] and below 0.5 µM on Human σ1 receptor.
Take `Cc1nn2c(C3CCCN(Cc4ccc(Cl)cc4)C3)ccnc2c1CNCC1CCOC1` (racemic) [Example 201, (+/−)-1-(7-((R/S)-1-(4-Chlorobenzyl)piperidin-3-yl)-2-methylpyrazolo[1,5-a]pyrimidin-3-yl)-N—(((S/R)-tetrahydrofuran-3-yl)methyl)methanamine]: the Ki in assay [1] was above 5 µM; on Human σ1 receptor, below 0.5 µM.
In the same order, the values of `c1ccc(CN2CCCC(c3ccnc4cc(N5CCCC5)nn34)C2)cc1` (centres unmarked) [Example 78, 7-(1-Benzylpiperidin-3-yl)-2-(pyrrolidin-1-yl)pyrazolo[1,5-a]pyrimidine] are above 5 µM and 0.5 to 1 µM.
For `Brc1cc2nccc(C3CCCN(Cc4ccccc4)C3)n2n1` (centres unmarked) [Example 1, 7-(1-Benzylpiperidin-3-yl)-2-bromopyrazolo[1,5-a]pyrimidine], the Ki in assay [1] was 0.5 to 5 µM; at Human σ1 receptor, 0.5 to 1 µM.
With `Cc1cnc2c(CNCC3CCOCC3)c(C)nn2c1C1CCCN(Cc2ccc(Cl)cc2)C1` (centres unmarked) [Example 237, 1-(7-(1-(4-Chlorobenzyl)piperidin-3-yl)-2,6-dimethylpyrazolo[1,5-a]pyrimidin-3-yl)-N-((tetrahydro-2H-pyran-4-yl)methyl)methanamine], the Ki (in assay [1]; on Human σ1 receptor) was below 0.5 µM in each case.
